Read-outs that look alike come from different tables or passages of the source.
What was measured:
human NaCT = human NaCT (Homo sapiens, UniProt Q86YT5); assay: Uptake via human NaCT expressed in HRPE cells; assay type: cell-based; conditions: for [^14C]-Citrate Uptake (cDNA-specific) / [^14C]-Citrate Uptake, %: [14C]-citrate 20 μM, unlabeled compound 2.5 mM; for [^14C]-Citrate Uptake, %: none = 100
mouse NaCT = target: T1, mouse NaCT (Mus musculus, UniProt Q67BT3); assay: Transport via mouse NaCT expressed in HRPE cells; assay type: cell-based; conditions: for [^3H]-Succinate transport (NaCT-specific) / [^3H]-Succinate transport, %: [3H]-succinate 0.1 μM; for [^3H]-Succinate transport (NaCT-specific) / [^3H]-Succinate transport, % / [^14C]-Citrate transport (NaCT-specific) / [^14C]-Citrate transport, %: substrate analog 2 mM; for [^3H]-Succinate transport, % / [^14C]-Citrate transport, %: control = 100; for [^14C]-Citrate transport (NaCT-specific) / [^14C]-Citrate transport, %: [14C]-citrate 10 μM
T1 sequence (Q67BT3 1-572): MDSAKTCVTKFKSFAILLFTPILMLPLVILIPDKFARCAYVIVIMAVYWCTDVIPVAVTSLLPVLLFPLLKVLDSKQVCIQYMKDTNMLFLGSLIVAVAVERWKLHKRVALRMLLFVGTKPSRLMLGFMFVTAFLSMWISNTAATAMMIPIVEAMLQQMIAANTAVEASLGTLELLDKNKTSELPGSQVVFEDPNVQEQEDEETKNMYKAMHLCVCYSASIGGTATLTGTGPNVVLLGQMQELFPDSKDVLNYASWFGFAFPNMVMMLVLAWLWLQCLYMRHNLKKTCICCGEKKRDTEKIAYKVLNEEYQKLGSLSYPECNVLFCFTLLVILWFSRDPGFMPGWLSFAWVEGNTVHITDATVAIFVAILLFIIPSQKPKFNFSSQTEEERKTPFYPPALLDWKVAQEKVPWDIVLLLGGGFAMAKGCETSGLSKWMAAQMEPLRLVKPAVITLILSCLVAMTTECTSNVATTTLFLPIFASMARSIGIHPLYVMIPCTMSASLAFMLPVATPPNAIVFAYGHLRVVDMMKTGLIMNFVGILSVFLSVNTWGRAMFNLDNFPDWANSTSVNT

drIndy = drIndy (Drosophila melanogaster, UniProt Q9VVT2); conditions: for % Control of cDNA-specific [^3H]succinate uptake / cDNA-specific [^3H] succinate uptake: [3H]succinate 40 nM, inhibitor 2.5 mM; for cDNA-specific [^3H] succinate uptake: NaCl buffer pH 7.5; for Uptake in drIndy cDNA-transfected cells vs vector alone / Succinate uptake mediated by drIndy: succinate 40 nM
Sequence of drIndy (Q9VVT2 19-590): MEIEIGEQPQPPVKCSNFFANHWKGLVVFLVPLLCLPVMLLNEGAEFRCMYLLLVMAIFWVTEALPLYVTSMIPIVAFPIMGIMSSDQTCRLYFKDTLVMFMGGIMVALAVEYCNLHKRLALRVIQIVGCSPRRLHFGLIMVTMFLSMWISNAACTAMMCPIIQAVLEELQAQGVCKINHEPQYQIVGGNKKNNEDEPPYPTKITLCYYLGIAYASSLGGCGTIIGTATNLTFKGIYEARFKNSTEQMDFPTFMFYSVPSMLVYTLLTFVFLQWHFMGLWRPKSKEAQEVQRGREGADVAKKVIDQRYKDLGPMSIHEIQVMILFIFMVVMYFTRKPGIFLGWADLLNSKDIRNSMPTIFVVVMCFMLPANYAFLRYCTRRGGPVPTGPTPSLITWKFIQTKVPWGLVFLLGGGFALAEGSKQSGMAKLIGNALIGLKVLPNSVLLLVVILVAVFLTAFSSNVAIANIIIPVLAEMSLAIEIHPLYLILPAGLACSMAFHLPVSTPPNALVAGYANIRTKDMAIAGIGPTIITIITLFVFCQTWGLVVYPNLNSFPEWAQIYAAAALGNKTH

rat NaCT [1] = target: T2, rat NaCT (Rattus norvegicus, UniProt Q8CJ44); assay: Rat NaCT in X. laevis oocytes, voltage clamp and charge-to-substrate ratio; assay type: cell-based; conditions: for Charge-to-substrate ratio: 50 μM substrate, −50 mV, 10 min
T2 sequence (Q8CJ44 1-572): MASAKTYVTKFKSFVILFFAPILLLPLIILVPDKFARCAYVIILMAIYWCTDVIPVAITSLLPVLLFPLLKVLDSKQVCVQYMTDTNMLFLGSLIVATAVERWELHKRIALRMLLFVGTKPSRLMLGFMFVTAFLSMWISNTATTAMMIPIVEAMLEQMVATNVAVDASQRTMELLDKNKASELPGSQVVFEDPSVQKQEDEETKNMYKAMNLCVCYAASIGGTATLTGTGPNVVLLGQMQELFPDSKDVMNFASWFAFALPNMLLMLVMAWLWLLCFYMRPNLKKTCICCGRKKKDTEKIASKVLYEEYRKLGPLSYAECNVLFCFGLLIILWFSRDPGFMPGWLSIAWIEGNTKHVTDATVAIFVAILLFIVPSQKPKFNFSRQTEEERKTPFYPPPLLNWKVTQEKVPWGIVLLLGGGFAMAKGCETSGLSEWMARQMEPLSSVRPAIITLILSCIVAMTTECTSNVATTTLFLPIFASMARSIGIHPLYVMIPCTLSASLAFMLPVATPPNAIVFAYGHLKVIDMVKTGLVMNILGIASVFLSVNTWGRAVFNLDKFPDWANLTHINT

hNaDC3 = target: T3, hNaDC3 (Homo sapiens, UniProt Q8WWT9)
T3 sequence (Q8WWT9 1-602): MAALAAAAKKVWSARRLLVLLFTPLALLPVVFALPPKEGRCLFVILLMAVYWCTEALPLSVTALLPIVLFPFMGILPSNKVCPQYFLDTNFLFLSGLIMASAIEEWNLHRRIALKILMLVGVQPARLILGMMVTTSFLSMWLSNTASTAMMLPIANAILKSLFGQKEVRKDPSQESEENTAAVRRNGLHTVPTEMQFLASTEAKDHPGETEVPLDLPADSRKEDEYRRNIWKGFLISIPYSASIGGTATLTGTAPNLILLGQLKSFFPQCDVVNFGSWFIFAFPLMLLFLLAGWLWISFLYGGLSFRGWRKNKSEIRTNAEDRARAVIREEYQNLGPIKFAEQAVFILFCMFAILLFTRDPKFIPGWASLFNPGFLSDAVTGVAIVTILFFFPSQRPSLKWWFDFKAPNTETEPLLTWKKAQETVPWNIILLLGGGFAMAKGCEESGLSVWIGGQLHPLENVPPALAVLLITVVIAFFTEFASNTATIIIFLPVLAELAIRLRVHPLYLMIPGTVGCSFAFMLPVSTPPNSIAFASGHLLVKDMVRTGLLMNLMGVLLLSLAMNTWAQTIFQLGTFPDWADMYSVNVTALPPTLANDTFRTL

rat NaCT [2] = target: T2, rat NaCT; assay: Uptake via rat NaCT expressed in HRPE cells; assay type: cell-based; conditions: for [^14C]Citrate uptake (cDNA-specific) / [^14C]Citrate uptake, %: [14C]citrate 14 μM, unlabeled compound 2.5 mM; for [^14C]Citrate uptake, %: none = 100; for Uptake in rat NaCT cDNA-transfected cells vs vector alone: succinate 80 nM, pyruvate 135 μM, citrate 35 μM, Na+ gradient
[3] = presence of Na+, citrate 35 μM, pyruvate 135 μM

Sequence of human NaCT (Q86YT5 whole entry): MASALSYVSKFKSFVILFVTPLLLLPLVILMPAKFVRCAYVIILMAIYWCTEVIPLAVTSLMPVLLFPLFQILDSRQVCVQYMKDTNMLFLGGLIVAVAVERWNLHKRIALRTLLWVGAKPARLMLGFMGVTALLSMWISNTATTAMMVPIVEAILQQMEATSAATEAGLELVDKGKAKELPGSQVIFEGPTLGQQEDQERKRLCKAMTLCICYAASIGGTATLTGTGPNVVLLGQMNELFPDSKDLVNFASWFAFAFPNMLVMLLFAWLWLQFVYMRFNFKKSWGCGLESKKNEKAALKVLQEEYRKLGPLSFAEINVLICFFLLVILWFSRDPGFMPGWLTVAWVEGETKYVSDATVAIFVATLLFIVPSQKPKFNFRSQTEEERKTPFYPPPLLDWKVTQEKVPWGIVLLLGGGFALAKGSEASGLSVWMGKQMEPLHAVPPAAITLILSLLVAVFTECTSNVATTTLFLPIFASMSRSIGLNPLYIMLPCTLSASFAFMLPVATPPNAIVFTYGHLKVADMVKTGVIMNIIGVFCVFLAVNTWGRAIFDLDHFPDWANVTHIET

SMILES | IC50 (human NaCT) [µM] | [^14C]-Citrate Uptake (cDNA-specific) (human NaCT) [pmol/10^6 cells/min] | [^14C]-Citrate Uptake, % (human NaCT) [%] | Maximal velocity (Vmax) (mouse NaCT) [pmol/10^6 cells/min] | Michaelis-Menten constant (Kt) for transport via mouse NaCT (mouse NaCT) [µM] | [^3H]-Succinate transport (NaCT-specific) (mouse NaCT) [pmol/10^6 cells/min] | [^3H]-Succinate transport, % (mouse NaCT) [%] | [^14C]-Citrate transport (NaCT-specific) (mouse NaCT) [pmol/10^6 cells/min] | [^14C]-Citrate transport, % (mouse NaCT) [%] | Transport in mouse NaCT cDNA-transfected cells vs vector alone (mouse NaCT; succinate 50 nM, citrate 20 μM) [fold] | % Control of cDNA-specific [^3H]succinate uptake (drIndy) [%] | cDNA-specific [^3H] succinate uptake (drIndy) [fmol/106 cells per min] | Uptake in drIndy cDNA-transfected cells vs vector alone (drIndy; [3]) | Charge-to-substrate ratio (rat NaCT [1]) | IC50 (rat NaCT [2]) [µM] | Ki (rat NaCT [2]) [µM] | [^14C]Citrate uptake (cDNA-specific) (rat NaCT [2]) [Pmol/10^6 cells/min] | [^14C]Citrate uptake, % (rat NaCT [2]) [%] | Uptake in rat NaCT cDNA-transfected cells vs vector alone (rat NaCT [2]) | other results
O=C(O)CC(O)(CC(=O)O)C(=O)O [Citrate] | 688 ± 150 | 7.7 ± 0.7 | 16 | 118±6 | 22 ± 2 | 0.004 ± 0.001 | 3 | 0.7 ± 0.1 | 2 | 20.2 | 13 | 18.6 ± 3.0 | approximately 30 fold | 1 | 28 ± 4 | 16 ± 2 | 1.5 ± 0.1 | 1 | approximately 90 fold | Kt for citrate via human NaCT in the presence of Li+ (human NaCT; 10 mM Li+): 95 ± 15 µM; Uptake in human NaCT cDNA-transfected cells vs vector alone (human NaCT; citrate 20 μM, NaCl): about 23 fold; Affinity of human NaCT for citrate less than that of rat NaCT (human NaCT; identical assay conditions): about 30 fold; Kt (Michaelis-Menten constant) for citrate uptake via human NaCT (human NaCT; wild type, absence of Li+): 604 ± 73 µM; Transport of citrate in cDNA-transfected cells (mouse NaCT; citrate 20 μM): 48.4±1.0 pmol/10^6 cells/min; Currents in rat NaCT oocytes compared to mouse NaCT (rat NaCT [1]; 0.5 mM citrate): 3 fold; Citrate-induced current (rat NaCT [1]; 0.5 mM citrate, three oocytes): 87±8 nA; Lower affinity of hNaDC3 than drIndy for citrate (hNaDC3): 20 fold; Kt (Michaelis-Menten constant) for citrate uptake via rat NaCT (rat NaCT [2]): 18 ± 4 µM
O=C(O)CCC(=O)O [Succinate, succinate] | 1920 ± 480 | 32.1 ± 3.6 | 67 | 80±5 | 33 ± 4 | 0.007 ± 0.003 | 5 | 0.1 ± 0.1 | 1 | 7.8 | 6 | 4.6 ± 0.4 | 20 fold | 2 | 172 ± 24 | 98 ± 14 | 5.7 ± 0.2 | 5 | about 7 fold | Transport of succinate in cDNA-transfected cells (mouse NaCT; succinate 50 nM): 42.7±4.6 fmol/10^6 cells/min; Uptake in drIndy cDNA-transfected cells vs vector alone (drIndy; absence of Na+): 15 fold; Km (drIndy; read-out: Michaelis-Menten constant (Km) for transport via drIndy, presence of Na+): 40 ± 4 µM; Succinate uptake mediated by drIndy (drIndy; pH 5): 52±2 fmol/10^6 cells per minute; Succinate uptake mediated by drIndy (drIndy; pH 8): 127±5 fmol/10^6 cells per minute; Uptake in hNaDC3 cDNA-transfected cells vs vector (hNaDC3; succinate 40 nM, presence of Na+): 200 fold; Affinity of rat NaCT for succinate lower than for citrate (rat NaCT [2]): 6 fold; Succinate uptake at physiological concentrations (rat NaCT [2]; medium with 135 μM citrate and 40 μM succinate): 0.005±0.001 nmol/10^6 cells/minute

— US20050095240A1, “NaCT as a target for lifespan expansion and weight reduction” (Medical College of Georgia Research, priority 2002, published 2005)
